test system: SDF-1α induced Ca flux in SUP-T1 cells; assay: Inhibition of SDF-1α induced Ca flux in SUP-T1 cells (FLIPR); assay type: cell-based; settings: Homo sapiens, at 20 μM, read-out: inhibited SDF-1α induced Ca flux
Protocol: Loading dye: Fluo-3, AM (Molecular Probes F-1241) is dissolved in anhydrous DMSO and stored frozen in aliquots. To increase the solubility of the dye in the loading medium, 10% (w/v) pluronic acid (Molecular Probes F-127) is added to the Fluo-3 stock solution immediately before use.
HBSS+20 mM Hepes buffer+0.2% BSA, pH 7.4. HBSS 10× [(w/o phenol red and sodium bicarbonate (Gibco 14 065-049)]; Hepes buffer 1M (Gibco 15 630-056), BSA (Sigma A3675). The flux buffer is vacuum-filtered and stored refrigerated for a maximum of 5 days. Before use in the experiment, the buffer is warmed at 37° C. in a waterbath.
The test compounds were diluted in flux buffer and added to 4 wells of a black microplate (4 parallel measurements per compound).
The chemokines are diluted in flux buffer to concentrations that are 4-fold higher than the desired concentrations required for stimulation of the cells (i.e. 2.5 nM for SDF-1α and 0.6 nM for RANTES). The chemokines were added to untreated 96-well Sero well compound plates (International Medical, Sterilin code 611F96). In the negative control well's (baseline monitoring), flux buffer is added instead of chemokine. As a positive control to check for dye loading efficiency, 20 μM digitonin (final concentration) was also included. The agonist plate was incubated in the FLIPR (37° C.) for 15-30 min.
SUP-T1 cells were centrifuged at room temperature (RT) and re-suspended in loading medium (RPMI-1640 containing 2% FBS and 4 μM Fluo-3, AM). The cells were incubate at room temperature for 45 min. then washed twice in flux buffer then incubated in flux buffer at room temperature for 10 min. The cells were centrifuged and re-suspended in flux buffer at a density of 3×10^6 cells per mL. […] The microplate is then gently centrifuged at room temperature. Homogeneous spreading of the cells on the bottom of the microplate wells was then confirmed with a microscope and the microplate was incubated in the FLIPR (37° C.) for 10 min. prior to testing.
The FLIPR settings (camera exposure time and laser power) are adjusted to obtain initial fluorescence values between 8,000 and 10,000 units. After monitoring a 20 second-baseline, the agonist (chemokine) (50 μL) is added by automatic pipettor with black pipette tips. Fluorescence is measured simultaneously in all wells of the microplate every 2 seconds (first 2 min) and thereafter every 6 seconds (additional 2 min). The average ca-flux measured in each set of 4 identical wells (one test compound) was calculated by the FLIPR software.
The compounds of the current invention were tested for inhibition of SDF-1α induced Ca flux in SUP-T1 cells using the method described above.

SMILES | inhibition at 20 µM [%]
Cc1onc(-c2ccccc2Cl)c1C(=O)N1CCC(N(Cc2cccc(CNCc3ccccn3)c2)Cc2ccccn2)CC1 [Example 98, N,N′-bis(2-pyridinylmethyl)-N-[1-[3-(2-chlorophenyl)-5-methyl-isoxazol-4-oyl]-4-piperidinyl]-1,3-benzenedimethanamine] | > 20
O=C(NN1CCC(N(Cc2ccc(CNCc3ccccn3)cc2)Cc2ccccn2)CC1)c1cccnc1 [Example 131, N-[1-(3-pyridinecarboxamido)-4-piperidinyl]-N,N′-bis(2-pyridinylmethyl)-1,4-benzenedimethanamine] | > 20
Cc1onc(-c2ccccc2Cl)c1C(=O)NN1CCC(N(Cc2ccc(CNCc3ccccn3)cc2)Cc2ccccn2)CC1 [Example 135, N-[1-[3-(2-chlorophenyl)-5-methyl-isoxazol-4-carboxamido]-4-piperidinyl]-N,N′-bis(2-pyridinylmethyl)-1,4-benzenedimethanamine] | > 20
c1ccc(CN2CCC(N(Cc3ccc(CNCc4ccccn4)cc3)Cc3ccccn3)C2)cc1 (stereo not shown) [Example 145, N-[1-(benzyl)-3-pyrrolidinyl]-N,N′-bis(2-pyridinylmethyl)-1,4-benzenedimethanamine] | > 20
CC(C)N1CCC(N(Cc2ccc(CNCc3ccccn3)cc2)Cc2ccccn2)CC1 [Example 147, N-[1-(iso-propyl)-4-piperidinyl]-N,N′-bis(2-pyridinylmethyl)-1,4-benzenedimethanamine] | > 20
CCCCN1CCC(N(CCc2ccccn2)Cc2cccc(CNCc3ccccn3)c2)CC1 [Example 177, N-[1-butyl-4-piperidinyl]-N-[2-(2-pyridinyl)ethyl]-N′-(2-pyridinylmethyl)-1,3-benzenedimethanamine] | > 20
O=C(c1ccccc1)N1CCC(N(CCc2ccccn2)Cc2cccc(CNCc3ccccn3)c2)CC1 [Example 178, N-[1-benzoyl-4-piperidinyl]-N-[2-(2-pyridinyl)ethyl]-N′-(2-pyridinylmethyl)-1,3-benzenedimethanamine] | > 20
Cn1cc(CN(CCc2ccccn2)Cc2cccc(CNCc3ccccn3)c2)c2ccccc21 [Example 180, N-[(1-methyl)benzo[b]pyrrol-3-ylmethyl]-N-[2-(2-pyridinyl)ethyl]-N′-(2-pyridinylmethyl)-1,3-benzenedimethanamine] | > 20
c1ccc(CN2CCC(N(CCc3ccccn3)Cc3ccc(CNCc4ccccn4)cc3)CC2)cc1 [Example 182, N-[1-(benzyl)-4-piperidinyl]-N-[2-(2-pyridinyl)ethyl]-N′-(2-pyridinylmethyl)-1,4-benzenedimethanamine] | > 20

same assay, conditions: Homo sapiens, at 20 μg/mL, read-out: inhibited SDF-1α induced Ca flux

SMILES | inhibition at 20 µg/mL [%]
c1ccc(CNCc2ccc(CNc3cccc4c3NCCC4)cc2)nc1 [Example 9, N-(2-pyridinylmethyl)-N′-(1,2,3,4-tetrahydro-8-quinolinyl)-1,4-benzenedimethanamine] | > 20
c1ccc(CNCc2ccc(CN(Cc3ccc[nH]3)C3CCCc4cccnc43)cc2)nc1 (stereo not shown) [Example 26, N-(2-pyridinylmethyl)-N′-[2-pyrrolylmethyl]-N′-(5,6,7,8-tetrahydro-8-quinolinyl)-1,4-benzenedimethanamine] | > 20
NCCN(Cc1ccc(CNCc2ccccn2)cc1)C1CCCc2cccnc21 (stereo not shown) [Example 31, N-(2-pyridinylmethyl)-N′-(2-aminoethyl)-N′-(5,6,7,8-tetrahydro-8-quinolinyl)-1,4-benzenedimethanamine] | > 20
c1ccc(CN(Cc2ccc(CNCc3ccccn3)cc2)C2CCCc3cccnc32)cc1 (stereo not shown) [Example 60, N-(2-pyridinylmethyl)-N′-(phenylmethyl)-N′-(5,6,7,8-tetrahydro-8-quinolinyl)-1,4-benzenedimethanamine] | > 20
NCC(=O)N(Cc1ccc(CNCc2ccccn2)cc1)C1CCCc2cccnc21 (stereo not shown) [Example 72, N-[[4-[[(2-pyridinylmethyl)amino]methyl]phenyl]methyl]-N-(5,6,7,8-tetrahydro-8-quinolinyl)-glycinamide] | > 20
O=C(c1cnccn1)N(Cc1ccc(CNCc2ccccn2)cc1)C1CCCc2cccnc21 (stereo not shown) [Example 75, N-[[4-[[(2-pyridinylmethyl)amino]methyl]phenyl]methyl]-N-(5,6,7,8-tetrahydro-8-quinolinyl)-pyrazinamide] | > 20
O=C(c1ccccn1)N(Cc1ccc(CNCc2ccccn2)cc1)C1CCCc2cccnc21 (stereo not shown) [Example 79, N-[[4-[[(2-pyridinylmethyl)amino]methyl]phenyl]methyl]-N-(5,6,7,8-tetrahydro-8-quinolinyl)-picolinamide] | > 20
O=C(NC1CCCCc2cccnc21)c1ccc(CNCc2ccccn2)cc1 (stereo not shown) [Example 82, N-(6,7,8,9-tetrahydro-5H-cyclohepta[b]pyridin-9-yl)-4-[[(2-pyridinylmethyl)amino]methyl]benzamide] | > 20

test system: HIV-1 NL4.3 or IIIB; assay: Inhibition of HIV-1 (NL4.3 or IIIB) replication in MT-4 cells (MTT); assay type: cell-based; settings: Human immunodeficiency virus 1, IIIB, MT4, read-out: EC50, inhibition of HIV-1 NLA.3 or IIIB replication
Protocol: Compounds were tested for their ability to inhibit HIV-1 replication in MT-4 cells or PBMC's (peripheral blood mononucleocytes) using published procedures (for example, see: Labrosse et al. J. Virol. 1998, 6381-6388; Simmons et al. J. Virol. 1998, 8453-8457; Donzella et al. Nature Medicine 1998, 72-77; Schols et al. J. Exp. Med. 1997, 1383-1388; De Clercq et al. Antiviral Res. 1997, 147-156; and Bridger et al. U.S. patent application Ser. No. 09/111,895). In addition to the above references, experimental methods for performing anti-viral assays can also be found in: Bridger et al. J. Med. Chem. 1995, 38, 366-378; Bridger et al. J. Med. Chem. 1996, 39, 109-119; Bridger et al. U.S. Pat. No. 5,698,546; Bridger et al. U.S. Pat. No. 5,583,131; Bridger et al. U.S. Pat. No. 5,817,807; De Clercq et al. Antimicrob. Agents and Chemother. 1994, 38, 668-674.
1. The HIV-1 strains NL4.3 and IIIB are T-tropic strains that exclusively use CXCR4 as the co-receptor for entry into cells. MT-4 Cells express CXCR4 but not CCR5.
Inhibition of HIV-1 NL4.3 (or IIIB) replication assays were performed as previously described (Bridger et al. J. Med. Chem. 1999, 42, 3971-3981; De Clercq et al. Proc. Natl. Acad. Sci, 1992, 89, 5286-5290; De Clercq et al. Antimicrob. Agents Chemother. 1994, 38, 668-674; Bridger et al. J. Med. Chem. 1995, 38, 366-378). Anti-HIV activity and cytotoxicity measurements were carried out in parallel. They were based on the viability of MT-4 cells that had been infected with HIV in the presence of various concentrations of the test compounds. After the MT-4 cells were allowed to proliferate for 5 days, the number of viable cells was quantified by a tetrazolium-based calorimetric 3-(4,5-dimethylthiazol-2-yl)-2,5-diphenyltetrazolium bromide (MTT) procedure in 96-well microtrays. In all of these assays, viral input (viral multiplicity of infection, MOI) was 0.01, or 100 times the 50% cell culture infective dose (CCID50). The EC50 was defined as the concentration required to protect 50% of the virus-infected cells against viral cytopathicity.

SMILES | EC50 [µM]
COc1cc(CN(Cc2ccc(CNCc3ccccn3)cc2)C2CCCc3cccnc32)cc2c1OCO2 (stereo not shown) [Example 140, N-[(3-methoxy-4,5-methylenedioxyphenyl)methyl]-N′-(2-pyridinylmethyl)-N-(5,6,7,8-tetrahydro-8-quinolinyl)-1,4-benzenedimethanamine] | < 20
c1ccc(CNCc2ccc(CN(Cc3cccnc3)C3CCCc4cccnc43)cc2)nc1 (stereo not shown) [Example 141, N-(3-pyridinylmethyl)-N′-(2-pyridinylmethyl)-N-(5,6,7,8-tetrahydro-8-quinolinyl)-1,4-benzenedimethanamine] | < 20
Cn1c(CN(Cc2ccc(CNCc3ccccn3)cc2)C2CCCc3cccnc32)nc2ccccc21 (stereo not shown) [Example 144, N-(1-methylbenzimidazol-2-ylmethyl)-N′-(2-pyridinylmethyl)-N-(5,6,7,8-tetrahydro-8-quinolinyl)-1,4-benzenedimethanamine] | < 20
Oc1cccc2ccc(CN(Cc3ccc(CNCc4ccccn4)cc3)C3CCCCc4cccnc43)nc12 (stereo not shown) [Example 157, N-[(8-hydroxy)-2-quinolylmethyl]-N′-(2-pyridinylmethyl)-N-(6,7,8,9-tetrahydro-5H-cyclohepta[b]pyridin-9-yl)-1,4-benzenedimethanamine] | < 20
c1ccc(CNCc2ccc(CN(Cc3ccc4ccccc4n3)C3CCCCc4cccnc43)cc2)nc1 (stereo not shown) [Example 158, N-(2-quinolylmethyl)-N′-(2-pyridinylmethyl)-N-(6,7,8,9-tetrahydro-5H-cyclohepta[b]pyridin-9-yl)-1,4-benzenedimethanamine] | < 20

Source: patent US6750348B1, “Chemokine receptor binding heterocyclic compounds” (AnorMED, Inc., priority 1999, dated 2004)
